Experimental data: patent US5942641A, “Fluorenone derivatives, process for preparing the same and central or peripheral nerve degeneration repair and protective agent” (Otsuka Pharmaceutical Co., Ltd., priority 1993, dated 1999)
pIC50: −log10 of the molar value.

Target: T1, C-GMP-PDE (type V) (Homo sapiens, UniProt O76074)
T1 construct: from tissue; host or cells: human blood platelets (healthy adult), DEAE-cellulose fraction FI
Assay: Pharmacological test 4: C-GMP-PDE (type V) inhibition action
Format: biochemical
Conditions: FI fraction from human blood platelet
Description: (C-GMP-PDE (type V) inhibition action)
The separation and purification of PDE from a human blood platelet was conducted according to a method of Hidaka et al. [Hidaka, H. and Asano, I., Biochem. Biophys. Acta 429, 485-497 (1976)]. That is, a blood platelet derived from a healthy adult was washed with water, floated with a Tris buffer solution and centrifuged. Then, the supernatant thereof was applied to DEAE-cellulose and separated into three fractions, FI, FII and FIII due to concentration gradient of sodium acetate. By using FI having high affinity to C-GMP, the inhibition action of the test compound was examined. The influence of the drug on PDE was represented by the inhibition ratio to PDE activity in the absence of the drug.

| pIC50 | SMILES |
| --- | --- |
| 4.83 | C=CCc1c(O)c(O)c(CC=C)c2c1C(=O)c1ccccc1-2 [Example 21, 1,4-diallyl-2,3-dihydroxyfluorenone] |
| 5.06 | C=CCc1ccc2c(c1O)-c1ccc(O)c(CC=C)c1C2=O [Example 27, 1,6-Diallyl-2,5-dihydroxyfluorenone] |
| 6.40 | C=CCc1cc2c(c(CC=C)c1O)C(=O)c1c(CC=C)cc(CC=C)c(O)c1-2 [Example 31] |

Test system: Nerve cells of the cerebral cortex
Assay: Pharmacological test 1: neurite sprouting (NS) of cultured fetal rat cerebral cortex nerve cells, phase contrast microscopy versus control
Format: cell-based
Parameters: key: ++: extremely strong in comparison with the control; +: strong in comparison with the control; ±: same as the control; -: inferior to the control
Conditions: Dose 10^-5 (mole); 10 days after initiation of culture
Excerpt: Nerve cells of the cerebral cortex were removed aseptically from a fetal rat (17 days-old) and cultured according to a Asou's method [Asou, H. Brain Res., 332; pages 355-357 (1985)]. After the meninx, blood vessel, etc. were removed from the cerebral hemisphere, they were put through a stainless steel mesh (pore size: 140μm). Then, the isolated cells were floated on a culture medium (Eagle's basal medium containing 10% fetal bovine serum and glucose of 1 g/l) and 1.5×10^6 cells were respectively seeded on a dish (diameter: 35 mm) coated with poly-L-lysine to initiate the culture (37° C., 3% CO2). After 24 hours, the culture medium was replaced by a culture medium containing a test compound and cultured for additional 9 days.
10 Days after initiation of the culture, neurite sprouting (NS) was evaluated under phase contrast microscopy by comparing with the control group.

| SMILES | neurite sprouting (NS) |
| --- | --- |
| C=CCc1cc(C)c2c(c1O)C(=O)c1ccccc1-2 [Example 11] | + |
| C=CCc1c(O)ccc2c1C(=O)c1ccccc1-2 [Example 17] | ++ |
| C=CCc1cc2c(cc1O)C(=O)c1ccccc1-2 [Example 18] | ++ |
| C=CCc1cc2c(c(CC=C)c1O)C(=O)c1ccccc1-2 [Example 19] | ++ |
| C=CCc1ccc2c(c1O)-c1ccc(O)c(CC=C)c1C2=O [Example 27, 1,6-Diallyl-2,5-dihydroxyfluorenone] | + |
| C=CCc1ccc(O)c2c1C(=O)c1c-2ccc(O)c1CC=C [Example 28] | ++ |
| O=C1c2cc(O)ccc2-c2cc(O)ccc21 [Example 40] | ++ |
| C=CCc1ccc(O)c2c1C(=O)c1ccccc1-2 [Example 61] | ++ |

Same assay, conditions: Dose 10^-6 (mole); 10 days after initiation of culture

| SMILES | neurite sprouting (NS) |
| --- | --- |
| C=CCc1c(O)ccc2c1C(=O)c1c-2ccc(O)c1CC=C [Example 48] | + |
| C=CCc1ccc2c(c1O)-c1ccccc1C2=O [Example 62] | ++ |

Same assay, conditions: Dose 10^-7 (mole); 10 days after initiation of culture

| SMILES | neurite sprouting (NS) |
| --- | --- |
| C=CCc1cc2c(cc1O)C(=O)c1c-2ccc(CC=C)c1O [Example 14] | ++ |
| C=CCc1cc2c(c(CC=C)c1O)C(=O)c1c(O)c(CC=C)cc(CC=C)c1-2 [Example 16] | + |
| C=CCc1c(O)c(O)c(CC=C)c2c1C(=O)c1ccccc1-2 [Example 21, 1,4-diallyl-2,3-dihydroxyfluorenone] | ++ |
| O=C1c2cc(O)ccc2-c2c(O)cccc21 [Example 26] | + |
| C=CCc1cc2c(c(CC=C)c1O)C(=O)c1c(CC=C)cc(CC=C)c(O)c1-2 [Example 31] | + |
| C=CCc1cc2c(cc1O)C(=O)c1cccc(O)c1-2 [Example 35] | + |
| C=CCc1cc2c(c(CC=C)c1O)C(=O)c1cc(CC=C)c(O)c(CC=C)c1-2 [Example 45] | + |
| C=CCc1cc2c(c(CC=C)c1O)-c1ccccc1C2=O [Example 60] | + |

Test system: hyperoxidation reaction of lipid (microsome fraction)
Assay: Pharmacological test 3: antioxidation action, hyperoxidation reaction of lipid due to ascorbic acid induction in liver microsome fraction (TBA value)
Format: biochemical, Wister rat
Conditions: 37° C., 15 minutes; 200 μM ascorbic acid, 20 μM ferrous sulfate; read-out: IC50 (antioxidation, 50% inhibition concentration)
Description: (The measurement of antioxidation action)
The antioxidation action was measured using the hyperoxidation reaction of lipid due to ascorbic acid induction [Shimada, O. and Yasuda, H. BBA489, 163-172 (1977)].
Microsome fraction was obtained from a lever of Wister rat by a Kato's method [J. Biochem., 59, 574 (1966)]. This fraction was added to a 60 mM potassium phosphate buffer solution (containing 45 mM potassium chloride, 200 μM ascorbic acid and 20 μM ferrous sulfate) in an amount of 1 mg/ml and the test compound (0.1% dimethyl sulfoxide) was added, and the mixture was incubated at 37° C. for 15 minutes. The same amount of 10% trichloroacetic acid was added and the resultant was centrifuged. A portion of the supernatant was collected and the amount of malondialdehyde due to thiobarbituric acid (TBA value) was measured [Klaassen, C. D. and Plaa, G. L. Biochem. Pharmacol., 18: 2019 (1969)]. The inhibition ratio was calculated by the following formula:
Inhibition ratio={1-(TBA value of specimen)/(TBA value of […]

| pIC50 | SMILES |
| --- | --- |
| 7.00 | C=CCc1c(O)c(O)c(CC=C)c2c1C(=O)c1ccccc1-2 [Example 21, 1,4-diallyl-2,3-dihydroxyfluorenone] |
| 5.80 | C=CCc1ccc2c(c1O)-c1ccc(O)c(CC=C)c1C2=O [Example 27, 1,6-Diallyl-2,5-dihydroxyfluorenone] |
| 6.70 | C=CCc1cc2c(c(CC=C)c1O)C(=O)c1c(CC=C)cc(CC=C)c(O)c1-2 [Example 31] |

Test system: mouse dorsal root ganglion cells
Assay: Pharmacological Test 2: neurite outgrowth in primary culture of mouse dorsal root ganglion cells
Format: cell-based, mouse (C57BL/6)
Parameters: key: +: positive; ±: false positive; -: negative
Conditions: Dose 3 × 10^-7 (mole); 7 days culture
Description: (The measurement of neurite outgrowth in primary culture of mouse dorsal root ganglion cells)
Preparation of cells was conducted according to a method of Horie et al. [H. Horie., FEBS, 296, 23 (1990)]. That is, C57BL/6 male mice aged 10 to 15 weeks were used. They were bleeded to death under ether anesthetization and the backbone from cervical vertebra to sacral vertebra was removed. The capsule of dorsal root ganglion of which ventral root and dorsal root had been cut was stripped in a Ham F12 medium (Flow laboratories) and then ganglia were treated with 0.25% collagenase (Worthington Biochemical Corporation) at 37° C. for 90 minutes. The medium was replaced by a Hank's physiological buffer solution containing no calcium and magnesium and cells were treated with 0.25% trypsin (Flow Laboratories) at room temperature for 20 minutes. A trypsin inhibitor (Sigma, 100 μg/ml) was added to terminate the enzyme reaction and trituration was conducted 20 times using a tapered Pasteur pipette. The medium was replaced again by the Ham F12 medium and cells were put through a nylon mesh (150 μm) to remove a cell mass which had not been separated. Cells were suspended in the Ham F12 medium containing a N1 additive [Bottenstein, J. E., Exp. Cell. Res., 125, 183 (1980)] (kanamycin of 60 μg/ml added).
A poly-1-lysine-coating cell disc as a culture medium which had been subjected to 10 μg/ml laminin (Koken Cell Gen) coating treatment at 37° C. for 3 hours was placed on a 24 well dish and nerve cells (5000 to 10000 cells/dish) were seeded. The test compound (concentration: 0.01 mol/l) was dissolved in dimethyl sulfoxide and diluted with a phosphate buffer solution to adjust to a final concentration, and then added to a culture solution. Cells were cultured in 5% CO2 -95% air phase at 37° C. for 7 days.
For the measurement of neurite outgrowth, the cell disc was washed with a phosphate buffer solution 7 days after initiation of the culture and immobilized with 4% paraformaldehyde at 4° C. for 24 hours, and then immune staining was conducted with Vecstatin ABC kit (Vector) using a neurofilament antibody (200 kD, manufactured by Boehringer Mannheim GmbH). The periphery of the cell disc was restrictively observed under microscopy, and the amount of neurofilament (whole length per well) was evaluated by comparing with the control well according to the following criteria: positive (+), false positive (±) and negative (-).

| SMILES | Neurite outgrowth action |
| --- | --- |
| Cc1cc2c(c(C)c1O)C(=O)c1ccc(C)c(O)c1-2 [Example 118, 1,3,6-trimethyl-2,5-dihydroxyfluorenone] | + |
| Cc1cc2c(c(C)c1O)C(=O)c1ccc(CSc3ccccc3)c(O)c1-2 [Example 136] | + |

Same assay, conditions: Dose 3 × 10^-8 (mole); 7 days culture

| SMILES | Neurite outgrowth action |
| --- | --- |
| CCCc1cc2c(c(CCC)c1O)C(=O)c1c(CCC)cc(CCC)c(O)c1-2 [Example 32] | + |
| CCCc1cc2c(c(CCC)c1OC(C)=O)C(=O)c1c(CCC)cc(CCC)c(OC(C)=O)c1-2 [Example 134] | + |
| COc1ccc(SCc2ccc3c(c2O)-c2cc(C)c(O)c(C)c2C3=O)cc1 [Example 141] | + |
| Cc1cc2c(c(C)c1O)C(=O)c1ccc(CSC3CCCCC3)c(O)c1-2 [Example 142] | + |

Same assay, conditions: Dose 10^-6 (mole); 7 days culture

| SMILES | Neurite outgrowth action |
| --- | --- |
| C=CCc1c(O)ccc2c1C(=O)c1ccccc1-2 [Example 17] | + |
| C=CCc1cc2c(cc1O)C(=O)c1ccccc1-2 [Example 18] | + |
| O=C1c2ccccc2-c2cc(O)c(O)cc21 [Example 20, 2,3-dihydroxyfluorenone] | + |
| COc1cccc2c1-c1cc(C(C)C)c(O)cc1C2=O [Example 36] | + |
| O=C1c2cc(O)ccc2-c2cc(O)ccc21 [Example 40] | + |
| C=CCc1cc2c(c(CC=C)c1O)-c1ccccc1C2=O [Example 60] | + |
| C=CCc1ccc2c(c1O)-c1ccccc1C2=O [Example 62] | + |
| CSc1ccc(O)c2c1C(=O)c1ccccc1-2 [Example 63] | + |
| C=CCc1cc(SC)c2c(c1O)-c1ccccc1C2=O [Example 64] | + |

Same assay, conditions: Dose 10^-7 (mole); 7 days culture

| SMILES | Neurite outgrowth action |
| --- | --- |
| C=CCc1cc2c(c(CC=C)c1O)C(=O)c1ccccc1-2 [Example 19] | + |
| C=CCc1c(O)c(O)c(CC=C)c2c1C(=O)c1ccccc1-2 [Example 21, 1,4-diallyl-2,3-dihydroxyfluorenone] | + |
| CCCc1c(O)c(O)c(CCC)c2c1C(=O)c1ccccc1-2 [Example 22, 1,4-di-n-propyl-2,3-dihydroxyfluorenone] | + |
| O=C1c2cc(O)ccc2-c2c(O)cccc21 [Example 26] | + |
| C=CCc1ccc2c(c1O)-c1ccc(O)c(CC=C)c1C2=O [Example 27, 1,6-Diallyl-2,5-dihydroxyfluorenone] | + |
| C=CCc1cc2c(cc1O)C(=O)c1ccc(CC=C)c(O)c1-2 [Example 29] | + |
| C=CCc1cc2c(cc1O)C(=O)c1c(CC=C)ccc(O)c1-2 [Example 30] | + |
| C=CCc1cc2c(c(CC=C)c1O)C(=O)c1c(CC=C)cc(CC=C)c(O)c1-2 [Example 31] | + |
| C=CCc1cc(Cl)c2c(c1O)-c1cc(Cl)c(O)c(CC=C)c1C2=O [Example 33] | + |
| C=CCc1cc(Cl)c(O)c2c1C(=O)c1c-2cc(Cl)c(O)c1CC=C [Example 34] | + |
| C=CCc1c(O)ccc2c1C(=O)c1ccc(O)c(CC=C)c1-2 [Example 41] | + |
| C=CCc1cc2c(cc1O)-c1cc(CC=C)c(O)cc1C2=O [Example 44] | + |
| C=CCc1cc2c(c(CC=C)c1O)C(=O)c1cc(CC=C)c(O)c(CC=C)c1-2 [Example 45] | + |
| C=CCc1c(O)ccc2c1C(=O)c1c-2ccc(O)c1CC=C [Example 48] | + |
| C=CCc1cc2c(c(CC=C)c1O)C(=O)c1c-2cc(CC=C)c(O)c1CC=C [Example 50] | + |
| CCCc1cc2c(c(CCC)c1O)C(=O)c1c-2cc(CCC)c(O)c1CCC [Example 53] | + |
| CCCc1cc2c(c(Cl)c1O)C(=O)c1c-2cc(Cl)c(O)c1CCC [Example 54, 3,8-dichloro-1,6-di-n-propyl-2,7-dihydroxyfluorenone] | + |
| C=CCc1cc2c(cc1OC(C)=O)C(=O)c1c-2ccc(OC(C)=O)c1CC=C [Example 106, 1,6-diallyl-2,7-diacetoxyfluorenone] | + |
| Cc1cc2c(c(C)c1O)C(=O)c1ccc(CNc3ncccn3)c(O)c1-2 [Example 123] | + |
| CCCc1ccc2c(c1O)-c1cc(CNc3ncccn3)c(O)c(CCC)c1C2=O [Example 127] | + |
| CCCc1ccc2c(c1O)-c1cc(CNC(CC(C)C)C(=O)OC)c(O)c(CCC)c1C2=O (stereo not drawn) [Example 131] | + |
| CCCc1ccc2c(c1O)-c1cc(CN3CCC[C@H]3C(=O)OC)c(O)c(CCC)c1C2=O [Example 132] | + |
| CCCc1cc2c(c(CC(C)OCCOCCO)c1O)C(=O)c1c(CCC)cc(CCC)c(O)c1-2 (stereo not drawn) [Example 143] | + |
| Cc1cc2c(c(C)c1O)C(=O)c1ccc(CC#N)c(O)c1-2 [Example 144] | + |
